# Measured values reported in patent EP1137645B1, “ALPHA-METHYLBENZYL-CONTAINING THIOUREA INHIBITORS OF HERPES VIRUSES CONTAINING A […] GROUP” (Wyeth, priority 1998, dated 2000).
# Like-named read-outs stand apart in the source and are kept apart here.
# Experiments:
# [1] = tested on: HSV- I; assay: HSV antiviral (ELISA) assay; format: cell-based; details: read-out: IC50 (ug/ml) HSV
# In short: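 IC50 from fluorescence versus untreated control in a cell ELISA: anti-glycoprotein D antibody, β-galactosidase-conjugated secondary, 4-methyl umbelliferone read at 365/450 nm. Vero cells (2% FBS DMEM) received compound 30 min pre-infection with HSV-1 at MOI 0.006, fixed ~24 h post-infection.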
# [2] = tested on: HCMV recombinant mutant virus whose genome contains the prokaryotic beta-glucuronidase gene; assay: microbe, parasite or virus in culture; format: cell-based, human cytomegalovirus; details: Human betaherpesvirus 5, Fibroblast
# In short: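 Antiviral IC50 estimated from reduced reporter activity across compound amounts: lysates prepared 96 h after infection were tested with p-nitrophenyl- or methylumbelliferyl-glucuronide. Cells were human foreskin fibroblasts, infected alongside inhibitor with HCMV (e.g. RV145) expressing viral promoter-driven beta-glucuronidase.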
# [3] = tested on: VZV strain Ellen; assay: VZV antiviral (ELISA) assay; format: cell-based
# In short: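 HFF cells infected with VZV Ellen at multiplicity below 0.1 overnight, then mixed infected/uninfected cells seeded with compound in DMEM/2% FBS and incubated three days at 37°C, 5% CO2.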
# [4] = read-out: IC50 ug/ml HCMV, HCMV, human foreskin fibroblasts
# [5] = Human alphaherpesvirus 3, HFF, read-out: % inhibition 10 ug/ml VZV
# [6] = Human alphaherpesvirus 3, HFF, read-out: IC50 (ug/ml) VZV
# [7] = Human alphaherpesvirus 3, HFF, read-out: IC50 (ug/ml) VZV, VZV strain Ellen, HFF cells, ELISA
# [8] = Human alphaherpesvirus 3, read-out: % inhibition 10 ug/ml VZV, 10 ug/ml, VZV strain Ellen, HFF cells, ELISA
# [9] = Human alphaherpesvirus 3, VZV strain Ellen, HFF cells, ELISA, read-out: IC50 (ug/ml) VZV
Structure (SMILES),"IC50 ([1]; HSV- I, Vero cells, ELISA)","IC50 [2, 4]","inhibition at 10 µg/mL [3, 5]","IC50 [3, 6]",IC50 ([1]; Vero),"IC50 [3, 7]",IC50 ([2]; read-out: IC50 ug/ml HCMV),"inhibition at 10 µg/mL [3, 8]","IC50 [3, 9]"
"CSc1ccc(NC(=S)Nc2ccc(NC(=O)c3ccccc3F)cc2)cc1Cl [Example 847, N-{4-[3-(3-Chloro-4-methylsulfanyl-phenyl)-thioureido]-phenyl}-2-fluoro-benzamide]",0.4 µg/mL,0.3 µg/mL,65%,> 10 µg/mL,,,,,
"COc1cc(OC)c(NC(=S)Nc2ccc(NC(=O)c3ccccc3NC(C)=O)cc2)cc1Cl [Example 189, 2-Acetylamino-N-{4-[3-(5-chloro-2,4-dimethoxy-phenyl)-thioureido]-phenyl}-benzamide]",2.5 µg/mL,> 10 µg/mL,59%,> 10 µg/mL,,,,,
"CCCCOc1ccc(NC(=S)Nc2ccc(NC(=O)c3ccccc3F)cc2)cc1Cl [Example 809, N-{4-[3-(4-Butoxy-3-chloro-phenyl)-thioureido]-phenyl}-2-fluoro-benzamide]",,> 10 µg/mL,,,> 10 µg/mL,> 7.5 µg/mL,,,
"C[C@H](NC(=S)Nc1ccc(NC(=O)c2ccccc2F)cc1)c1ccc(Cl)cc1 [Example 1015, N-(4-{3-[(1S)-1-(4-Chloro-phenyl)-ethyl]-thioureido}-phenyl)-2-fluoro-benzamide]",,2.5 µg/mL,,,> 10 µg/mL,0.03 µg/mL,,,
"O=C(O)c1cccc(NC(=S)Nc2ccc(NC(=O)c3ccco3)cc2)c1 [Example 964, 3-(3-{4-[(Furan-2-carbonyl)-amino]-phenyl}-thioureido)-benzoic acid]",> 10 µg/mL,,,,,,> 10 µg/mL,0%,> 10 µg/mL
"CC(NC(=S)Nc1ccc(NC(=O)c2cccc(F)c2)cc1)c1ccc(F)cc1 (centres unmarked) [Example 800, 3-Fluoro-N-(4-{3-[1-(4-fluoro-phenyl)-ethyl]-thioureido}-phenyl)-benzamide]",> 10 µg/mL,,,,,,> 10 µg/mL,,> 7.5 µg/mL
"CC(NC(=S)Nc1ccc(NC(=O)c2cccc(Cl)c2)cc1)c1ccc(F)cc1 (centres unmarked) [Example 761, 3-Chloro-N-(4-{3-[1-(4-fluoro-phenyl)-ethyl]-thioureido}-phenyl)-benzamide]",,1.5 µg/mL,,,10 µg/mL,> 10 µg/mL,,,
"CC(NC(=S)Nc1ccc(NC(=O)c2nccc3ccccc23)cc1)c1cc2ccccc2o1 (centres unmarked) [Example 977, Isoquinoline-1-carboxylic acid {4-[3-(1-benzofuran-2-yl-ethyl)-thioureido]-phenyl}-amide]",,> 10 µg/mL,,,> 10 µg/mL,0.05 µg/mL,,,
"Nc1ccc(NC(=S)Nc2ccc(NC(=O)c3ccccc3F)cc2)cc1Cl [Example 404, N-{4-[3-(4-Amino-3-chloro-phenyl)-thioureido]-phenyl}-2-fluoro-benzamide]",0.4 µg/mL,8 µg/mL,15%,> 10 µg/mL,,,,,
"CC(NC(=S)Nc1ccc(NC(=O)c2nccc3ccccc23)cc1)c1ccc(Br)cc1 (centres unmarked) [Example 978, Isoquinoline-1-carboxylic acid (4-{3-[1-(4-bromo-phenyl)-ethyl]-thioureido}-phenyl)-amide]",,7.8 µg/mL,,,> 10 µg/mL,0.04 µg/mL,,,
"Nc1ccc(C(F)(F)F)cc1NC(=S)Nc1ccc(NC(=O)c2ccccc2F)cc1 [Example 999, N-{4-[3-(2-Amino-5-trifluoromethyl-phenyl)-thioureido]-phenyl}-2-fluoro-benzamide]",2.2 µg/mL,,,,,,4 µg/mL,,9.4 µg/mL
"COc1ccc(NC(=S)Nc2ccc(NC(=O)c3ccc(F)cc3)cc2)cc1Cl [Example 823, N-{4-[3-(3-Chloro-4-methoxy-phenyl)-thioureido]-phenyl}-4-fluoro-benzamide]",6 µg/mL,6 µg/mL,7%,> 10 µg/mL,,,,,
"O=C(CN1CCCCCC1)Nc1ccc(NC(=S)Nc2ccc(NC(=O)c3ccccc3F)cc2)cc1Cl [Example 423, N-(4-{3-[4-(2-Azepan-1-yl-acetylamino)-3-chloro-phenyl]-thioureido}-phenyl)-2-fluoro-benzamide]",4 µg/mL,1 µg/mL,87%,0.9 µg/mL,,,,,
"CC(NC(=S)Nc1ccc(NC(=O)c2ccccc2F)cc1)c1ccc(Cl)cc1 (centres unmarked) [Example 781, N-(4-{3-[1-(4-Chloro-phenyl)-ethyl]-thioureido}-phenyl)-2-fluoro-benzamide]",,1.8 µg/mL,,,> 10 µg/mL,0.6 µg/mL,,,
"COc1cc(C)c(Cl)cc1NC(=S)Nc1ccc(NC(=O)c2ccccc2C)cc1 [Example 850, N-{4-[3-(5-Chloro-2-methoxy-4-methyl-phenyl)-thioureido]-phenyl}-2-methyl-benzamide]",0.09 µg/mL,2 µg/mL,28%,5 µg/mL,,,,,
"O=C(CN1CCCC1)Nc1ccc(NC(=S)Nc2ccc(NC(=O)c3ccccc3F)cc2)cc1Cl [Example 417, N-(4-{3-[3-Chloro-4-(2-pyrrolidin-1-yl-acetylamino)-phenyl]-thioureido}-phenyl)-2-fluoro-benzamide]",6 µg/mL,> 10 µg/mL,15%,> 10 µg/mL,,,,,
"CN(C)c1cccc(NC(=S)Nc2ccc(NC(=O)c3ccccc3F)cc2)c1 [Example 454, N-{4-[3-(3-Dimethylamino-phenyl)-thioureido]-phenyl}-2-fluoro-benzamide]",1.5 µg/mL,4 µg/mL,55%,> 10 µg/mL,,,,,
"CC(NC(=S)Nc1ccc(NC(=O)c2ccccc2F)cc1)c1cc2ccccc2o1 (centres unmarked) [Example 1002, N-{4-[3-(1-Benzofuran-2-yl-ethyl)-thioureido]-phenyl}-2-fluoro-benzamide]",,2.1 µg/mL,,,> 10 µg/mL,0.08 µg/mL,,,
"COc1cc(OC)c(NC(=S)Nc2ccc(NC(=O)c3ccccc3F)c(C(=O)c3ccccc3)c2)cc1Cl [Example 293, N-{2-Benzoyl-4-[3-(5-chloro-2,4-dimethoxy-phenyl)-thioureido]-phenyl}-2-fluoro-benzamide]",> 50 µg/mL,> 10 µg/mL,2%,> 10 µg/mL,,,,,
"COc1c(Cl)cc(NC(=S)Nc2ccc(NC(=O)c3ccccc3F)cc2)cc1Cl [Example 874, N-{4-[3-(3,5-Dichloro-4-methoxy-phenyl)-thioureido]-phenyl}-2-fluoro-benzamide]",5 µg/mL,0.2 µg/mL,75%,3.5 µg/mL,,,,,
"O=C(Nc1ccc(NC(=S)Nc2cc(Cl)ccc2Cl)cc1)c1ccccc1F [Example 931, N-{4-[3-(2,5-Dichloro-phenyl)-thioureido]-phenyl}-2-fluoro-benzamide]",4 µg/mL,> 10 µg/mL,51%,> 10 µg/mL,,,,,
"O=C(Nc1ccc(NC(=S)Nc2cc(C(F)(F)F)cc(C(F)(F)F)c2)cc1)c1ccccc1F [Example 517, N-{4-[3-(3,5-Bis-trifluoromethyl-phenyl)-thioureido]-phenyl}-2-fluoro-benzamide]",> 10 µg/mL,,,,,,1.1 µg/mL,5%,> 10 µg/mL
"COc1cc(OC)c(NC(=S)Nc2ccc(NC(=O)c3cccc([N+](=O)[O-])c3)cc2)cc1Cl [Example 135, N-{4-[3-(5-Chloro-2,4-dimethoxy-phenyl)-thioureido]-phenyl}-3-nitro-benzamide]",1.5 µg/mL,5 µg/mL,0%,> 10 µg/mL,,,,,
"Cc1ccc(NC(=S)Nc2ccc(NC(=O)c3ccccc3F)cc2Cl)cc1Cl [Example 459, N-{3-Chloro-4-[3-(3-chloro-4-methyl-phenyl)-thioureido]-phenyl}-2-fluoro-benzamide]",0.12 µg/mL,> 10 µg/mL,25%,> 10 µg/mL,,,,,
"CC(NC(=S)Nc1ccc(NC(=O)c2ccc(Cl)cc2)cc1)c1ccc(F)cc1 (centres unmarked) [Example 756, 4-Chloro-N-(4-{3-[1-(4-fluoro-phenyl)-ethyl]-thioureido}-phenyl)-benzamide]",,> 10 µg/mL,,,> 10 µg/mL,0.3 µg/mL,,,
"Nc1c(Cl)cccc1NC(=S)Nc1ccc(NC(=O)c2c(F)cccc2F)cc1 [Example 465, N-{4-[3-(2-Amino-3-chloro-phenyl)-thioureido]-phenyl}-2,6-difluoro-benzamide]",> 10 µg/mL,> 10 µg/mL,31%,> 10 µg/mL,,,,,
"CC(NC(=S)Nc1ccc(NC(=O)c2ccccc2F)cc1)c1ccc(C#N)cc1 (centres unmarked) [Example 792, N-(4-{3-[1-(4-Cyano-phenyl)-ethyl]-thioureido}-phenyl)-2-fluoro-benzamide]",> 10 µg/mL,,,,,,5 µg/mL,,> 7.5 µg/mL
"CCOC(=O)COc1cccc(C(=O)Nc2ccc(NC(=S)Nc3cc(Cl)c(OC)cc3OC)cc2)c1 [Example 221, (3-{4-[3-(5-Chloro-2,4-dimethoxy-phenyl)-thioureido]-phenylcarbamoyl}-phenoxy)-acetic acid ethyl ester]",> 10 µg/mL,> 10 µg/mL,17%,> 10 µg/mL,,,,,
